Measured values as given in PMC8819633 (Journal of medicinal chemistry, 2021).

Columns and labels:
[1] = test system: total AKT (T-AKT) and phosphorylated AKT (P-AKT (S473)); assay: Western blot of AKT degradation in BT474 cells; assay type: cell-based, human; settings: for T-AKT and P-AKT protein degradation (western blot): 24 h, 1, 5 and 10 μM (12-13: 1, 3 and 10 μM); for extent of T-AKT degradation in concentration-response: indicated concentrations; for P-AKT (S473) protein level (western blot): GDC-0068 at 1 μM; for T-AKT protein level (western blot): controls at 1 μM
[2] = test system: P-PRAS40 (T246) and P-S6 (S240/244); assay: Western blot of downstream signaling inhibition in BT474 cells; assay type: cell-based, human; settings: 24 h; for inhibition of downstream signaling, P-PRAS40 and P-S6: compared with GDC-0068 (1 μM)

Molecule: 3-(((S)-2-(4-Chlorophenyl)-3-(4-((5R,7R)-7-hydroxy-5-methyl-6,7-dihydro-5H-cyclopenta[d]pyrimidin-4-yl)piperazin-1-yl)-3-oxopropyl)amino)-N-(2-((2-(2,6-dioxopiperidin-3-yl)-1,3-dioxoisoindolin-4-yl)amino)ethyl)propenamide [Compound 19]
- T-AKT and P-AKT protein degradation (western blot) [1]: marginally effective in inducing AKT degradation at 1–10 μM

Molecule: 3-(((S)-2-(4-Chlorophenyl)-3-(4-((5R,7R)-7-hydroxy-5-methyl-6,7-dihydro-5H-cyclopenta[d]pyrimidin-4-yl)piperazin-1-yl)-3-oxopropyl)amino)-N-(3-((2-(2,6-dioxopiperidin-3-yl)-1,3-dioxoisoindolin-4-yl)amino)propyl)propenamide [Compound 20]
- T-AKT and P-AKT protein degradation (western blot) [1]: marginally effective in inducing AKT degradation at 1–10 μM

Molecule: Cc1ncsc1-c1ccc(CNC(=O)[C@@H]2C[C@@H](O)CN2C(=O)[C@@H](NC(=O)CCCCCCCCCCNC(=O)CCNC[C@@H](C(=O)N2CCN(c3ncnc4c3[C@H](C)C[C@H]4O)CC2)c2ccc(Cl)cc2)C(C)(C)C)cc1 [Compound 11, (2S,4R)-1-((S)-2-(11-(3-(((S)-2-(4-Chlorophenyl)-3-(4-((5R,7R)-7-hydroxy-5-methyl-6,7-dihydro-5H-cyclopenta[d]pyrimidin-4-yl)-piperazin-1-yl)-3-oxopropyl)amino)propanamido)-undecanamido)-3,3-dimethylbutanoyl)-4-hydroxy-N-(4-(4-methyl-thiazol-5-yl)benzyl)pyrrolidine-2-carboxamide]
- T-AKT and P-AKT protein degradation (western blot) [1]: near-complete degradation of T-AKT and P-AKT at 1 μM
- hook effect in AKT degradation ([1]; 24 h, higher concentrations (up to 10 μM)): at 5 and 10 μM, a ″hook effect″ was observed
- inhibition of downstream signaling, P-PRAS40 and P-S6 [2]: less effective than the parent inhibitor GDC-0068

Molecule: C[C@@H]1C[C@@H](O)c2ncnc(N3CCN(C(=O)[C@H](CNCCC(=O)NCCCCCCCCNc4cccc5c4C(=O)N(C4CCC(=O)N(C)C4=O)C5=O)c4ccc(Cl)cc4)CC3)c21 (stereo partly drawn) [Compound 62, 3-(((S)-2-(4-Chlorophenyl)-3-(4-((5R,7R)-7-hydroxy-5-methyl-6,7-dihydro-5H-cyclopenta[d]pyrimidin-4-yl)piperazin-1-yl)-3-oxopropyl)amino)-N-(8-((2-(1-methyl-2,6-dioxopiperidin-3-yl)-1,3-dioxoisoindolin-4-yl)amino)octyl)propenamide]
- extent of T-AKT degradation in concentration-response ([1]; 24 h): did not degrade T-AKT

Molecule: 3-(((S)-2-(4-Chlorophenyl)-3-(4-((5R,7R)-7-hydroxy-5-methyl-6,7-dihydro-5H-cyclopenta[d]pyrimidin-4-yl)piperazin-1-yl)-3-oxopropyl)amino)-N-(8-((2-(2,6-dioxopiperidin-3-yl)-1-oxoisoindolin-4-yl)amino)octyl)propenamide [Compound 28]
- T-AKT and P-AKT protein degradation (western blot) [1]: completely abolished AKT degradation activity

Molecule: C[C@@H]1C[C@@H](O)c2ncnc(N3CCN(C(=O)[C@H](CNCCNC(=O)CCCCCCCCNc4cccc5c4C(=O)N(C4CCC(=O)NC4=O)C5=O)c4ccc(Cl)cc4)CC3)c21 (stereo partly drawn) [Compound 26, N-(2-(((S)-2-(4-chlorophenyl)-3-(4-((5R,7R)-7-hydroxy-5-methyl-6,7-dihydro-5H-cyclopenta[d]pyrimidin-4-yl)piperazin-1-yl)-3-oxopropyl)amino)ethyl)-9-((2-(2,6-dioxopiperidin-3-yl)-1,3-dioxoisoindolin-4-yl)amino)nonanamide]
- P-AKT (S473) protein level (western blot) ([1]; 24 h): did not reduce the P-AKT level
- T-AKT protein level (western blot) ([1]; 24 h): partially degraded T-AKT
- inhibition of P-PRAS40 ([2]; 1 μM): as effectively as GDC-0068

Molecule: Cc1ncsc1-c1ccc(CNC(=O)[C@@H]2C[C@@H](O)CN2C(=O)[C@@H](N)C(C)(C)C)cc1 [VHL-1, reference compound]
- T-AKT protein level (western blot) ([1]; 24 h): no detectable effect on the T-AKT protein level

Molecule: 3-(((S)-2-(4-Chlorophenyl)-3-(4-((5R,7R)-7-hydroxy-5-methyl-6,7-dihydro-5H-cyclopenta[d]pyrimidin-4-yl)piperazin-1-yl)-3-oxopropyl)amino)-N-(2-(2-((2-(2,6-dioxopiperidin-3-yl)-1,3-dioxoisoindolin-4-yl)amino)ethoxy)ethyl)propenamide [Compound 14]
- T-AKT and P-AKT protein degradation (western blot) [1]: not very effective at all concentrations tested

Molecule: CC(C)NC[C@@H](C(=O)N1CCN(c2ncnc3c2[C@H](C)C[C@H]3O)CC1)c1ccc(Cl)cc1 [GDC-0068, reference compound]
- time course of T-AKT and P-AKT degradation ([1]; 1 μM, indicated times): no effect on the T-AKT protein level and increased the P-AKT protein level
- P-AKT (S473) protein level (western blot) ([1]; 24 h): AKT hyperphosphorylation
- T-AKT protein level (western blot) ([1]; 24 h): no detectable effect on the T-AKT protein level
- inhibition of downstream signaling, P-PRAS40 and P-S6 [2]: effectively inhibited downstream signaling

Molecule: Cc1ncsc1-c1ccc(CNC(=O)[C@@H]2C[C@@H](O)CN2C(=O)[C@@H](NC(=O)CCCCNC(=O)CCNC[C@@H](C(=O)N2CCN(c3ncnc4c3[C@H](C)C[C@H]4O)CC2)c2ccc(Cl)cc2)C(C)(C)C)cc1 [Compound 6, (2S,4R)-1-((S)-2-(5-(3-(((S)-2-(4-Chlorophenyl)-3-(4-((5R,7R)-7-hydroxy-5-methyl-6,7-dihydro-5H-cyclopenta[d]pyrimidin-4-yl)-piperazin-1-yl)-3-oxopropyl)amino)propanamido)pentanamido)-3,3-dimethylbutanoyl)-4-hydroxy-N-(4-(4-methylthiazol-5-yl)-benzyl)pyrrolidine-2-carboxamide]
- T-AKT and P-AKT protein degradation (western blot) [1]: concentration-dependently reduced the protein levels of T-AKT and P-AKT

Molecule: Cc1ncsc1-c1ccc(CNC(=O)[C@@H]2C[C@@H](O)CN2C(=O)[C@@H](NC(=O)COCCOCCNC(=O)CCNC[C@@H](C(=O)N2CCN(c3ncnc4c3[C@H](C)C[C@H]4O)CC2)c2ccc(Cl)cc2)C(C)(C)C)cc1 [Compound 4, (2S,4R)-1-((2S,18S)-2-(tert-Butyl)-18-(4-chlorophenyl)-19-(4-((5R,7R)-7-hydroxy-5-methyl-6,7-dihydro-5H-cyclopenta[d]-pyrimidin-4-yl)piperazin-1-yl)-4,13,19-trioxo-6,9-dioxa-3,12,16-tri-azanonadecanoyl)-4-hydroxy-N-(4-(4-methylthiazol-5-yl)benzyl)-pyrrolidine-2-carboxamide]
- T-AKT and P-AKT protein degradation (western blot) [1]: less effective in AKT degradation

Molecule: 3-(((S)-2-(4-Chlorophenyl)-3-(4-((5R,7R)-7-hydroxy-5-methyl-6,7-dihydro-5H-cyclopenta[d]pyrimidin-4-yl)piperazin-1-yl)-3-oxopropyl)amino)-N-(5-((2-(2,6-dioxopiperidin-3-yl)-1,3-dioxoisoindolin-4-yl)amino)pentyl)propenamide [Compound 22]
- T-AKT and P-AKT protein degradation (western blot) [1]: marginally effective in inducing AKT degradation at 1–10 μM

Molecule: 3-(((S)-2-(4-Chlorophenyl)-3-(4-((5R,7R)-7-hydroxy-5-methyl-6,7-dihydro-5H-cyclopenta[d]pyrimidin-4-yl)piperazin-1-yl)-3-oxopropyl)amino)-N-(6-((2-(2,6-dioxopiperidin-3-yl)-1,3-dioxoisoindolin-4-yl)amino)hexyl)propenamide [Compound 23]
- T-AKT and P-AKT protein degradation (western blot) [1]: highly effective in reducing T-AKT and P-AKT protein levels

Molecule: 3-(((S)-2-(4-Chlorophenyl)-3-(4-((5R,7R)-7-hydroxy-5-methyl-6,7-dihydro-5H-cyclopenta[d]pyrimidin-4-yl)piperazin-1-yl)-3-oxopropyl)amino)-N-(7-((2-(2,6-dioxopiperidin-3-yl)-1,3-dioxoisoindolin-4-yl)amino)heptyl)propenamide [Compound 24]
- T-AKT and P-AKT protein degradation (western blot) [1]: highly effective in reducing T-AKT and P-AKT protein levels

Molecule: (2S,4R)-1-((2S,25S)-2-(tert-Butyl)-25-(4-chlorophenyl)-26-(4-((5R,7R)-7-hydroxy-5-methyl-6,7-dihydro-5H-cyclopenta[d]-pyrimidin-4-yl)piperazin-1-yl)-4,20,26-trioxo-7,10,13,16-tetraoxa-3,19,23-triazahexacosanoyl)-4-hydroxy-N-(4-(4-methylthiazol-5-yl)benzyl)pyrrolidine-2-carboxamide [Compound 5]
- T-AKT and P-AKT protein degradation (western blot) [1]: less effective in AKT degradation

Molecule: Cc1ncsc1-c1ccc([C@H](C)NC(=O)[C@H]2C[C@H](O)CN2C(=O)[C@@H](NC(=O)CCCCCCCCCCC(=O)NCCNC[C@@H](C(=O)N2CCN(c3ncnc4c3[C@H](C)C[C@H]4O)CC2)c2ccc(Cl)cc2)C(C)(C)C)cc1 [Compound 61, N^1-(2-(((S)-2-(4-Chlorophenyl)-3-(4-((5R,7R)-7-hydroxy-5-methyl-6,7-dihydro-5H-cyclopenta[d]pyrimidin-4-yl)piperazin-1-yl)-3-oxopropyl)amino)ethyl)-N^12-((S)-1-((2R,4S)-4-hydroxy-2-(((S)-1-(4-(4-methylthiazol-5-yl)phenyl)ethyl)carbamoyl)pyrrolidin-1-yl)-3,3-dimethyl-1-oxobutan-2-yl)dodecanediamide]
- extent of T-AKT degradation in concentration-response ([1]; 24 h): did not degrade T-AKT

Molecule: Nc1cccc2c1C(=O)N(C1CCC(=O)NC1=O)C2=O (stereo not shown) [POM, pomalidomide, reference compound]
- T-AKT protein level (western blot) ([1]; 24 h): no detectable effect on the T-AKT protein level

Molecule: 3-(((S)-2-(4-Chlorophenyl)-3-(4-((5R,7R)-7-hydroxy-5-methyl-6,7-dihydro-5H-cyclopenta[d]pyrimidin-4-yl)piperazin-1-yl)-3-oxopropyl)amino)-N-(4-((2-(2,6-dioxopiperidin-3-yl)-1,3-dioxoisoindolin-4-yl)amino)butyl)propenamide [Compound 21]
- T-AKT and P-AKT protein degradation (western blot) [1]: marginally effective in inducing AKT degradation at 1–10 μM
